Results as given in PubChem BioAssay (NCI).
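1) Cells in 96-well plates. 2) Compound, 48 h, 5 concentrations. 3) Linear interpolation between surrounding doses. 4) Unreached endpoint = highest concentration. Definition used: TGI = concentration required for complete inhibition of growth.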

Assays:
Experiment in all cases: NCI tumour cell line growth inhibition, 48 h
MDA-N = tested on: MDA-N
SNB-19 CNS = tested on: SNB-19 CNS
KM12 colon = tested on: KM12 colon
A549 NSCLC = tested on: A549 NSCLC
HCT-15 colon = tested on: HCT-15 colon
RPMI-8226 leukemia = tested on: RPMI-8226 leukemia
SK-MEL-2 melanoma = tested on: SK-MEL-2 melanoma
HT29 colon = tested on: HT29 colon
SK-MEL-5 melanoma = tested on: SK-MEL-5 melanoma
MOLT-4 leukemia = tested on: MOLT-4 leukemia
U251 CNS = tested on: U251 CNS
RXF 393 renal = tested on: RXF 393 renal
HCC-2998 colon = tested on: HCC-2998 colon
HOP-92 NSCLC = tested on: HOP-92 NSCLC
SF-295 CNS = tested on: SF-295 CNS
UACC-257 melanoma = tested on: UACC-257 melanoma
SK-OV-3 ovarian = tested on: SK-OV-3 ovarian
TK-10 renal = tested on: TK-10 renal
MALME-3M melanoma = tested on: MALME-3M melanoma
COLO 205 colon = tested on: COLO 205 colon
MDA-MB-231 breast = tested on: MDA-MB-231 breast
SNB-75 CNS = tested on: SNB-75 CNS
SF-268 CNS = tested on: SF-268 CNS
NCI-H522 lung = tested on: NCI-H522 lung
NCI-H460 lung = tested on: NCI-H460 lung
DU-145 prostate = tested on: DU-145 prostate
EKVX NSCLC = tested on: EKVX NSCLC
OVCAR-4 ovarian = tested on: OVCAR-4 ovarian
SK-MEL-28 melanoma = tested on: SK-MEL-28 melanoma
HS 578T breast = tested on: HS 578T breast
MCF7 breast = tested on: MCF7 breast
MDA-MB-435 = tested on: MDA-MB-435
IGROV1 ovarian = tested on: IGROV1 ovarian
SF-539 CNS = tested on: SF-539 CNS
786-0 renal = tested on: 786-0 renal
NCI-H23 lung = tested on: NCI-H23 lung
OVCAR-8 ovarian = tested on: OVCAR-8 ovarian
PC-3 prostate = tested on: PC-3 prostate
UO-31 renal = tested on: UO-31 renal
LOX IMVI melanoma = tested on: LOX IMVI melanoma
OVCAR-3 ovarian = tested on: OVCAR-3 ovarian
M14 melanoma = tested on: M14 melanoma
HCT-116 colon = tested on: HCT-116 colon
UACC-62 melanoma = tested on: UACC-62 melanoma
SW-620 colon = tested on: SW-620 colon
BT-549 breast = tested on: BT-549 breast
HOP-62 NSCLC = tested on: HOP-62 NSCLC
SN12C renal = tested on: SN12C renal
CAKI-1 renal = tested on: CAKI-1 renal
NCI-H226 lung = tested on: NCI-H226 lung
OVCAR-5 ovarian = tested on: OVCAR-5 ovarian
ACHN renal = tested on: ACHN renal
A498 renal = tested on: A498 renal

Measured: TGI

COc1cc(/C=C/C(C)=O)ccc1OP(=O)(O)O
> 100 µM: all assays above
